{"source": "patent EP0840781B1", "about": "“METHODS AND DEVICES FOR THE REMOVAL OF PSORALENS FROM BLOOD PRODUCTS” (Cerus Corporation, priority 1995, dated 1996)", "key": {"Male Balb/c mice": {"tested_on": "Male Balb/c mice", "conditions": "for bone marrow toxicity or micronucleus formation: experiment repeated using increased dose levels", "protocol": "Male Balb/c mice were then injected with 0.1 ml of a compound solution via the tail vein. At least 3 mice were injected per dose level Saline only was used as a negative control. For a positive control, cyclophosphamide (cycloPP) was administered at a dose of 30 mg/kg. In the experimental group, the injections were repeated once per day for four days. In the positive control group, the sample was administered only once, on day three. On day 5, several microliters of blood were withdrawn from each subject and smeared on a glass slide. Cells were fixed in absolute methanol and stored in a slide rack.\nFor analysis, cells were stained with acridine orange and visualized under a fluorescence microscope by counting: (i) the number of reticulocytes per 5000 erythrocytes; and (ii) the number of micronucleated reticulocytes per 1000 reticulocytes. Reticulocytes were distinguished by their red fluorescence due to the presence of RNA. Micronuclei were distinguished by their green fluorescence due to the presence of DNA. The percentage of reticulocytes (%PCE) was then calculated. A decrease in the frequency of erythrocytes, represented by an increase in the percentage of reticulocytes, is an indication of bone marrow toxicity. The percentage of reticulocytes with micronuclei (%PCE with MN) was also calculated. An increase in %PCE with MN is a measure of elastogenicity.\nAfter initial results were determined, the experiment was repeated using increased dose levels, until: (i) Micronucleus formation was seen; or (ii). Bone marrow toxicity was observed; or (iii) The lethal dose was reached; or (iv) A dose of 5 g/kg was administered."}, "R17": {"tested_on": "R17", "assay": "r-17 bacteriophage assay: R17 treated with compound and UVA, remaining titer by plaque count on Hfr 3000 bacteria", "assay_type": "cell-based", "conditions": "for R17 inactivation efficiency compared with AMT: varying concentration (Tables 7 and 8, FIGS. 6-10)", "protocol": "In the r-17 assay, the bacteriophage was placed in a solution with each compound tested and was then irradiated. The ability of the phage to subsequently infect bacteria and inhibit their growth was measured. The bacteriophage was selected for its relatively accessible nucleic acid such that the culture growth inhibition would accurately reflect nucleic acid damage by the test compounds. The bacteriophage assay for nucleic acid binding to test compounds offers a safe and inexpensive procedure to identify compounds likely to display efficient pathogen inactivation. Previous experiments support that the r-17 assay accurately measures HIV-1 sensitivity to similar compounds. […] Modified Eagles Medium (DMEM) to a final phage concentration of 10^9/mL. An aliquot (0.5 mL) was transferred to a 1.5 mL snap-top polyethylene tube. […] Louis, MO). The tubes were placed in a light device as described in EXAMPLE 1 and irradiated for between 1 and 10 minutes. […] To make the dilutions. a 0.100 mL aliquot of the irradiated solution of phage and test compound was added to the first dilution tube of 0.4 mL of media then 0.020 mL of this solution was added to the second tube of 0.5 mL medium (1:25). […] After the top agar hardened, the plates were incubated at 37 °C overnight. The plaque forming units were then counted the following morning and the titer of the phage remaining after phototreatment was calculated based on the dilution factors. The following controls were run: the \"phage only\" in which phage was not treated with test compound and not irradiated (listed as \"starting titer\" in the tables below); the \"UV only\" in which the phage was irradiated in the absence of test compound; and the \"dark\" control in which the phage/test compound solution was not irradiated before it was diluted and plated. Compounds described herein were also tested at a constant concentration for varying doses of UV light. […] The compound tested was added at the desired concentration and the samples were vortexed. […] Between each 1.0 J/cm^2 intervals, 100µL was removed from each sample and placed in the first corresponding dilution tube, then five sequential dilutions were performed for each compound tested, at all 3 irradiation doses, as described above in this example. […] The contents of each tube was poured into its own LB plate and the plates were incubated overnight at 37 °C. Plaques were counted by visual inspection the following morning."}, "[1]": {"conditions": "8 µM, 1 Minute Irradiation, Starting Titer Approx. 7.2 Logs (Table 7)"}, "[2]": {"conditions": "16 µM, 1 Minute Irradiation, Starting Titer Approx. 7.1 Logs (Table 9)"}, "[3]": {"conditions": "16 µM, 1 Minute Irradiation, Starting Titer Approx. 7.2 Logs (Table 7)"}, "[4]": {"conditions": "16 µM, 1 Minute irradiation = 1.2 J/cm^2, Starting Titer Approx. 7.1 Logs (Table 8)"}, "[5]": {"conditions": "32 µM, 1 Minute Irradiation, Starting Titer Approx. 7.2 Logs (Table 7)"}, "[6]": {"conditions": "32 µM, 1 Minute irradiation = 1.2 J/cm^2, Starting Titer Approx. 7.1 Logs (Table 8)"}, "[7]": {"conditions": "male, Balb/c, mouse, in vivo, 25 mg/kg, 5 day"}, "[8]": {"conditions": "male, Balb/c, mouse, in vivo, 40 mg/kg, 5 day"}}, "note": "Where two headings read alike, the source gives them in different places."}
{"smiles": "Cc1cc(=O)oc2c(C)c3oc(COCCN)c(C)c3cc12", "note": "[Compound 18, 5'-(4-amino-2-oxa)butyl-4,4',8-trimethylpsoralen]", "values": [{"measurement": "bone marrow toxicity or micronucleus formation", "setting": "Male Balb/c mice", "result": "the acutely lethal dose was reached before there were any signs of bone marrow toxicity or micronucleus formation"}]}
{"smiles": "Cc1oc2c(C)c3oc(=O)cc(C)c3cc2c1CN", "note": "[AMT, 4'-Aminomethyl-4,5',8-trimethylpsoralen, reference compound]", "values": [{"measurement": "R17 Log Kill", "setting": "R17; [1]", "result": 2.7}, {"measurement": "R17 Log Kill", "setting": "R17; [2]", "result": ">6"}, {"measurement": "R17 Log Kill", "setting": "R17; [3]", "result": 4.6}, {"measurement": "R17 Log Kill", "setting": "R17; [4]", "result": 4.5}, {"measurement": "R17 Log Kill", "setting": "R17; 32 µM, 1 Minute Irradiation, Starting Titer Approx. 7.1 Logs (Table 9)", "result": ">6"}, {"measurement": "R17 Log Kill", "setting": "R17; [5]", "result": ">6.2"}, {"measurement": "R17 log kill (32 µM)", "setting": "R17; 32 µM, 1 Minute Irradiation, Starting Titer Approx. 7.5 Logs (Table 6)", "result": ">6.7"}, {"measurement": "R17 Log Kill", "setting": "R17; [6]", "result": 4.8}]}
{"smiles": "Cc1oc2c(C)c3oc(=O)cc(C)c3cc2c1CNCCCCN", "note": "[Compound 6, 4'-(6-amino-2-aza)hexyl4,5',8-trimethylpsoralen]", "values": [{"measurement": "R17 Log Kill", "setting": "R17; 8 µM, 1 Minute Irradiation, Starting Titer Approx. 7.1 Logs (Table 9)", "result": ">6"}, {"measurement": "R17 Log Kill", "setting": "R17; [2]", "result": ">6"}, {"measurement": "R17 Log Kill", "setting": "R17; [4]", "result": 6.1}, {"measurement": "R17 Log Kill", "setting": "R17; [6]", "result": ">6.1"}, {"measurement": "R17 Log Kill", "setting": "R17; 64 µM, 1 Minute irradiation = 1.2 J/cm^2, Starting Titer Approx. 7.1 Logs (Table 8)", "result": ">6.1"}, {"measurement": "efficiency at inactivating R17 compared with AMT", "setting": "R17; constant concentration, varying doses of UV light 1.0-3.0 J/cm^2 (FIGS. 11-17)", "result": "more efficient at inactivating R17 than was AMT"}, {"measurement": "R17 inactivation efficiency compared with AMT", "setting": "R17", "result": "significantly higher inactivation efficiency than does AMT"}, {"measurement": "PCE/RBC (%)", "setting": "Male Balb/c mice; Dose 45 mg/kg, tail vein, once per day for four days, blood on day 5", "result": "3.79 ± 10.41", "unit": "%"}, {"measurement": "bone marrow toxicity or micronucleus formation", "setting": "Male Balb/c mice", "result": "the acutely lethal dose was reached before there were any signs of bone marrow toxicity or micronucleus formation"}]}
{"smiles": "Cc1oc2c(C)c3oc(=O)cc(C)c3cc2c1COCCN", "note": "[Compound 2, 4'-(4-amino-2-oxa)butyl-4,5',8-trimethylpsoralen]", "values": [{"measurement": "R17 Log Kill", "setting": "R17; [1]", "result": 3.8}, {"measurement": "R17 Log Kill", "setting": "R17; [3]", "result": ">6.2"}, {"measurement": "R17 Log Kill", "setting": "R17; [5]", "result": ">6.2"}, {"measurement": "R17 inactivation efficiency compared with AMT", "setting": "R17", "result": "significantly higher inactivation efficiency than does AMT"}, {"measurement": "bone marrow toxicity or micronucleus formation", "setting": "Male Balb/c mice", "result": "the acutely lethal dose was reached before there were any signs of bone marrow toxicity or micronucleus formation"}, {"measurement": "PCE + MN (%)", "setting": "Male Balb/c mice; [7]", "result": "0.25 ± 0.11", "unit": "%"}, {"measurement": "PCE/RBC (%)", "setting": "Male Balb/c mice; [7]", "result": "3.46 ± 0.32", "unit": "%"}, {"measurement": "PCE + MN (%)", "setting": "Male Balb/c mice; [8]", "result": "0.20 ± 0.14", "unit": "%"}, {"measurement": "PCE/RBC (%)", "setting": "Male Balb/c mice; [8]", "result": "3.08 ± 0.82", "unit": "%"}]}
